Experimental data: patent US20240209053A1 (Protagonist Therapeutics, Inc., priority 2021, published 2024)
pIC50: −log10 of the molar value. Numbered stars: 1 amine (or outer) side, 2 acyl side, 3 side chain; on linkers, the order of the positions; unused ones are H or OH. Bridge positions count the residues as written; N and C are the ends. Square brackets hold non-standard residues; d marks the D form. Side chains are listed from the residue outwards. Peptide text beside a SMILES is read from it. * marks the point of attachment. Nle(6-ylidene) = O=C([C@H](CCCC=[*:3])N[*:1])[*:2]; Dip = N[C@H](C(=O)O)C(c1ccccc1)c1ccccc1; Hag = O=C([C@H](CCC=[*:3])N[*:1])[*:2]; Palmitoyl = CCCCCCCCCCCCCCCC(=O)*; NMeF = CN[C@@H](Cc1ccccc1)C(=O)O; β3hF = N[C@H](CC(=O)O)Cc1ccccc1; Isovaleryl = CC(C)CC(=O)*; Ahx = NCCCCCC(=O)O

Columns and labels:
[1] = target: T1, human ferroportin (SLC40A1) (Homo sapiens, UniProt Q9NP59); test: FPN activity assay: internalization/degradation of ferroportin-GFP in stably transfected HEK293 cells (decrease in GFP fluorescence); format: cell-based; conditions: compound incubated at least 18 hours
T1 sequence (Q9NP59 1-571): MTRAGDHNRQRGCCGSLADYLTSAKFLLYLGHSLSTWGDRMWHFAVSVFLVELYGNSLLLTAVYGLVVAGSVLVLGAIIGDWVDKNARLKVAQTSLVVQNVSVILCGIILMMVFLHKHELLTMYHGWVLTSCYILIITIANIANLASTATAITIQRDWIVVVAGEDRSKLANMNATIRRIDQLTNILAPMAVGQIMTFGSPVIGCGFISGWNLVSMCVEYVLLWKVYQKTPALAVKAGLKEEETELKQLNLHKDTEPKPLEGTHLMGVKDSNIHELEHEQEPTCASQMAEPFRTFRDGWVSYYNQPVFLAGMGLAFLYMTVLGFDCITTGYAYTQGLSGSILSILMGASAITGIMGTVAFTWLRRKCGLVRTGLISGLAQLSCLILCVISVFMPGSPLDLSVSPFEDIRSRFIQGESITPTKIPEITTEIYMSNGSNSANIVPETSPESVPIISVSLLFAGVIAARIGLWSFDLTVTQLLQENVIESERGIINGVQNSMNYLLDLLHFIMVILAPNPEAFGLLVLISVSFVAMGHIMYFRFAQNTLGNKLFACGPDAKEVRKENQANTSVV
Experimental: Peptide analogues were tested in vitro for induction of internalization of the human ferroportin protein. Following internalization, the ferroporin protein is degraded. The assay used (FPN activity assay) measures a decrease in fluorescence of the receptor. The cDNA encoding the human ferroportin (SLC40A1) was cloned from a cDNA clone from Origene (NM_014585). The DNA encoding the ferroportin was amplified by PCR using primers also encoding terminal restriction sites for subcloning, but without the termination codon. The ferroportin receptor was subcloned into a mammalian GFP expression vector containing a neomycin (G418) resistance marker in such that the reading frame of the ferroportin was fused in frame with the GFP protein. The fidelity of the DNA encoding the protein was confirmed by DNA sequencing. HEK293 cells were used for transfection of the ferroportin-GFP receptor expression plasmid. The cells were grown according to standard protocol in growth medium and transfected with the plasmids using Lipofectamine (manufacturer's protocol, Invitrogen). The cells stably expressing ferroportin-GFP were selected using G418 in the growth medium (in that only cells that have taken up and incorporated the cDNA expression plasmid survive) and sorted several times on a Cytomation MoFloTM cell sorter to obtain the GFP-positive cells (488 nm/530 nm). The cells were propagated and frozen in aliquots. […] Compound was added to desired final concentration for at least 18 hours in the incubator. […] Compound was added to desired final concentration for at least 18 hours but no more than 24 hours in the incubator. […] The “RI” in RI-Mini-Hepcidin refers to Retro Inverse. A retro inverse peptide is a peptide with a reversed sequence in all D amino acids. An example is that […] becomes […]. The EC50 of these reference compounds for ferroportin internalization/degradation was determined according to the FPN activity assay described above. These peptides served as control standards.

ferroportin = target: T2, ferroportin (Homo sapiens, UniProt Q9NP59); test: T47D cell-based ferroportin internalization assay in presence of 0.5% mouse serum albumin (MSA); conditions: T47D cells
T2 sequence (Q9NP59 1-571): T1 sequence (Q9NP59 1-571)
Experimental: The potency of the peptides in causing ferroportin internalization was evaluated in a T47D cell-based assay. […] In this internalization assay, the potency of the test peptides was evaluated in presence of serum albumin which is the main protein component in the blood. T47D cells were maintained in RPMI media (containing required amount of fetal bovine serum) and regularly sub-cultured. In preparation for the assay, the cells were seeded in 96-well plates at a density of 80-100 k cells per well in 100 ul volume and allowed to rest overnight. On the next day, test peptides were first prepared in dilution series (10-point series, starting concentration of ˜5 μM, typically 3-4×fold dilution steps), all with 0.5% mouse serum albumin (MSA purified from mouse serum; Sigma, A3139). The test peptide dilution series were allowed to incubate at room temperature for 30 min. Then the media was aspirated from the 96-well cell plate and test peptide dilution series were added. After 1 hr incubation, the media with test peptides was aspirated out and AF647-conjugated detection peptide was added at fixed concentration of 200 nM. The AF647-conjugated detection peptide was previously verified to bind to ferroportin and cause its internalization. The cells were washed again after a 2 hr incubation in preparation for flow cytometry analysis. The Median Fluorescence Intensity (MFI) of the AF647-positive population was measured (after removing dead cells and non-singlets from the analysis). The MFI values were used to generate a dose-response curve and obtain IC50 potencies for the test peptides. The IC50 potencies were calculated by using 4-parameter non-linear fitting function in Graphpad Prism (Table 6A).

Row | SMILES | pIC50 [1] | pIC50 (ferroportin)
1 | CCCCCCCCCCCCCCCC(=O)NCCCCCC(=O)NCCCC[C@H](NC(=O)C[C@H](Cc1ccccc1)NC(=O)[C@@H]1CCCC=CCCC[C@H](NC(=O)CC(C)C)C(=O)N[C@@H]([C@@H](C)O)C(=O)N[C@@H](Cc2c[nH]cn2)C(=O)N[C@@H](C(c2ccccc2)c2ccccc2)C(=O)N2CCC[C@H]2C(=O)N[C@@H](C)C(=O)N[C@@H]([C@@H](C)CC)C(=O)N1)C(=O)N[C@H](CCCCN)C(N)=O [Compd 28] | 8.00 to 9.00 | 8.00 to 9.00
2 | CCCCCCCCCCCCCCCC(=O)NCCCCCC(=O)NCCCC[C@@H]1NC(=O)[C@@H]2CCCN2C(=O)[C@H](C(c2ccccc2)c2ccccc2)NC(=O)[C@H](Cc2c[nH]cn2)NC(=O)[C@H]([C@@H](C)O)NC(=O)[C@@H](NC(=O)CC(C)C)CCCC=CCCC[C@@H](C(=O)N[C@H](CC(=O)N[C@H](CCCCN)C(N)=O)Cc2ccccc2)NC1=O [Compd 35] (Isovaleryl-[Nle(6-ylidene)]TH[Dip]PK([Ahx-Palmitoyl])[Nle(6-ylidene)][β3hF][dK]-NH2; staple 1-7) | < 6.30 | 
3 | CCCCCCCCCCCCCCCC(=O)NCCCCCC(=O)NCCCC[C@H](NC(=O)C[C@H](Cc1ccccc1)NC(=O)[C@@H](CCCCN)NC(=O)[C@@H](NC(=O)[C@@H]1CCC=CCC[C@H](NC(=O)[C@H](Cc2c[nH]cn2)NC(=O)[C@@H](NC(=O)[C@H](CCC(=O)O)NC(=O)CC(C)C)[C@@H](C)O)C(=O)N2CCC[C@H]2C(=O)N1)[C@@H](C)CC)C(=O)N[C@H](CCCCN)C(N)=O [Compd 5] (Isovaleryl-ETH[Hag]P[Hag]I[dK][β3hF]K([Ahx-Palmitoyl])[dK]-NH2; staple 4-6) | < 6.30 | 

Other lines, results leading:

Row | pIC50 [1] | pIC50 (ferroportin) | SMILES
4 | 8.00 to 9.00 | < 6.30 | CCCCCCCCCCCCCCCC(=O)NCCCCCC(=O)NCCCC[C@H](NC(=O)C[C@H](Cc1ccccc1)NC(=O)[C@@H]1CCC=CCCC[C@@H](NC(=O)CC(C)C)C(=O)N[C@@H]([C@@H](C)O)C(=O)N[C@@H](Cc2c[nH]cn2)C(=O)N[C@@H](C(c2ccccc2)c2ccccc2)C(=O)N2CCC[C@H]2C(=O)N[C@@H](C)C(=O)N[C@@H]([C@@H](C)CC)C(=O)N1)C(=O)N[C@H](CCCCN)C(N)=O [Compd 69]
5 | 8.00 to 9.00 | 7.00 to 8.00 | CCCCCCCCCCCCCCCC(=O)NCCCCCC(=O)NCCCC[C@H](NC(=O)C[C@H](Cc1ccccc1)NC(=O)[C@@H]1CCCC=CCC[C@@H](NC(=O)CC(C)C)C(=O)N[C@@H]([C@@H](C)O)C(=O)N[C@@H](Cc2c[nH]cn2)C(=O)N[C@@H](C(c2ccccc2)c2ccccc2)C(=O)N2CCC[C@H]2C(=O)N[C@@H](C)C(=O)N[C@@H]([C@@H](C)CC)C(=O)N1)C(=O)N[C@H](CCCCN)C(N)=O [Compd 67]
6 |  | < 6.30 | CCCCCCCCCCCCCCCC(=O)NCCCCCC(=O)NCCCC[C@H](NC(=O)C[C@H](Cc1ccccc1)NC(=O)[C@@H]1CCC=CCC[C@H](NC(=O)CC(C)C)C(=O)N[C@@H]([C@@H](C)O)C(=O)N[C@@H](Cc2c[nH]cn2)C(=O)N(C)[C@@H](Cc2ccccc2)C(=O)N2CCC[C@H]2C(=O)N[C@@H](C)C(=O)N[C@@H]([C@@H](C)CC)C(=O)N1)C(=O)N[C@H](CCCCN)C(N)=O [Compd 51] (Isovaleryl-[Hag]TH[NMeF]PAI[Hag][β3hF]K([Ahx-Palmitoyl])[dK]-NH2; staple 1-8)
7 | 6.30 to 7.00 |  | CCCCCCCCCCCCCCCC(=O)NCCCCCC(=O)NCCCC[C@@H]1NC(=O)[C@H](C)NC(=O)[C@@H]2CCCN2C(=O)[C@H](C(c2ccccc2)c2ccccc2)NC(=O)[C@H](Cc2c[nH]cn2)NC(=O)[C@H]([C@@H](C)O)NC(=O)[C@@H](NC(=O)CC(C)C)CCC=CCC[C@@H](C(=O)N[C@H](CC(=O)N[C@H](CCCCN)C(N)=O)Cc2ccccc2)NC1=O (single isomer, unassigned) [Compd 39]
8 |  | < 6.30 | CCCCCCCCCCCCCCCC(=O)NCCCCCC(=O)NCCCC[C@H](NC(=O)C[C@H](Cc1ccccc1)NC(=O)[C@@H]1CCC=CCC[C@H](NC(=O)CC(C)C)C(=O)N[C@@H]([C@@H](C)O)C(=O)N(C)[C@@H](Cc2c[nH]cn2)C(=O)N[C@@H](C(c2ccccc2)c2ccccc2)C(=O)N2CCC[C@H]2C(=O)N[C@@H](C)C(=O)N[C@@H]([C@@H](C)CC)C(=O)N1)C(=O)N[C@H](CCCCN)C(N)=O [Compd 50]
